Assay [1] deals with T1, 5HT uptake (serotonin reuptake), synaptosomes from hypothalamus of male rat brains (Rattus norvegicus, UniProt P31652).
T1 construct: synaptosomes are freshly isolated from areas of rat brain; from tissue; host or cells: synaptosomes (P2 fraction) from hypothalamus of male rat brains
Briefly: Serotonin reuptake inhibition (5HT uptake inhibition) in rat brain synaptosomes. It counts as biochemical. As to the method: Biological Testing a) Studies of Serotonin Reuptake Inhibition (5HT Uptake Inhibition)
In order to be able to carry out these in vitro studies, synaptosomes are freshly isolated from areas of rat brain. A so-called “P2” fraction is used in each case, which is prepared according to the procedure of Gray and Whittaker (E. G. Gray and V. P. Whittaker (1962) J. Anat. 76, 79-88). For 5HT uptake, these vesicular particles are isolated from the hypothalamus of male rat brains. A detailed description of the method can be found in the literature (M. Ch. Frink, H.-H. Hennies, W. Englberger, M. Haurand and B. Wilffert (1996) Arzneim.-Forsch./Drug Res. 46 (III), 11, 1029-1036).

The target of assay [2] is T2, NA uptake (noradrenaline reuptake), synaptosomes from hypothalamus of male rat brains (Rattus norvegicus, UniProt Q63380).
T2 construct: synaptosomes are freshly isolated from areas of rat brain; from tissue; host or cells: synaptosomes (P2 fraction) from hypothalamus of male rat brains
T2 sequence (Q63380 1-617): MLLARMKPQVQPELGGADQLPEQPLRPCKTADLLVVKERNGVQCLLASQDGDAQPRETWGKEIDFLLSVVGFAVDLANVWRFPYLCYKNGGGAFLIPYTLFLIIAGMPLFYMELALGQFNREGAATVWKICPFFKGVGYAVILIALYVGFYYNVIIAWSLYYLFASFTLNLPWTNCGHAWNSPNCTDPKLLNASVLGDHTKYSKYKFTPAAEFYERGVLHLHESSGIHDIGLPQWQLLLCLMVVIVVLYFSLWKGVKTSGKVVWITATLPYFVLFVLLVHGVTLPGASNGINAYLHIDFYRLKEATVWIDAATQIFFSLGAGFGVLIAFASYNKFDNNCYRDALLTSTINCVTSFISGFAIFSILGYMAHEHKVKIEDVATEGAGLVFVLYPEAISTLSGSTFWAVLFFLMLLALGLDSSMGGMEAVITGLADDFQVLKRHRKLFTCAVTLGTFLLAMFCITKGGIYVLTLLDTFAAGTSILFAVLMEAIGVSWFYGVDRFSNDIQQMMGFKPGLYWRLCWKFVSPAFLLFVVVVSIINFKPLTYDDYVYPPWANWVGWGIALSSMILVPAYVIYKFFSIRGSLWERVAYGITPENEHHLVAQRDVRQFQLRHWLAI
Briefly: Noradrenaline reuptake inhibition (NA uptake inhibition) in rat brain synaptosomes. The format is biochemical. The protocol:
b) Studies of Noradrenaline Reuptake Inhibition (NA Uptake Inhibition)
In order to be able to carry out these in vitro studies, synaptosomes are freshly isolated from areas of rat brain. A so-called “P2” fraction is used in each case, which is prepared according to the procedure of Gray and Whittaker (E. G. Gray and V. P. Whittaker (1962) J. Anat. 76, 79-88). For NA uptake, these vesicular particles are isolated from the hypothalamus of male rat brains. A detailed description of the method can be found in the literature (M. Ch. Frink, H.-H. Hennies, W. Englberger, M. Haurand and B. Wilffert (1996) Arzneim.-Forsch./Drug Res. 46 (III), 11, 1029-1036).

The next assay has as its target T3, human μ-opiate receptor (Homo sapiens, UniProt P35372).
T3 construct: purchased NEN, Zaventem, Belgium RB-HOM; host or cells: CHO-K1 cells (membrane preparation)
Briefly: Measurement of μ binding ([3H]-naloxone displacement, SPA, CHO-K1 membrane preparation). Conditions: 1.5 h; % inhibition of specific [3H]-naloxone binding at 1 μM test substance. The protocol:
c) Measurement of μ Binding
The receptor affinity for the human μ-opiate receptor was determined in a homogeneous batch on microtitre plates. To that end, serial dilutions of the substituted spirocyclic cyclohexane derivative to be tested were incubated for 90 minutes at room temperature with a receptor membrane preparation (15-40 μg of protein per 250 μl of incubation batch) of CHO-K1 cells, which express the human μ-opiate receptor (RB-HOM receptor membrane preparation from NEN, Zaventem, Belgium), in the presence of 1 nmol/l of the radioactive ligand [^3H]-naloxone (NET719, NEN, Zaventem, Belgium) and 1 mg of WGA-SPA beads (wheatgerm agglutinin SPA beads from Amersham/Pharmacia, Freiburg, Germany) in a total volume of 250 μl. The incubation buffer used was 50 mmol/l of Tris-HCl supplemented with 0.05 wt. % sodium azide and with 0.06 wt. % bovine serum albumin. In order to determine non-specific binding, 25 μmol/l of naloxone were additionally added. When the ninety-minute incubation time was complete, the microtitre plates were centrifuged off for 20 minutes at 1000 g and the radioactivity was measured in a β-counter (Microbeta-Trilux, PerkinElmer Wallac, Freiburg, Germany). The percentage displacement of the radioactive ligand from its binding to the human μ-opiate receptor at a concentration of the test substances of 1 μmol/l was determined and stated as the percentage inhibition (% inhibition) of specific binding. In some cases, on the basis of the percentage displacement by different concentrations of the compounds of formula I to be tested, IC50 inhibitory concentrations, which effect 50% displacement of the radioactive ligand, were calculated. Ki values for the test substances were obtained by conversion by means of the Cheng-Prusoff equation.

Each structure is given as a SMILES string. Structures can show the parent of a compound that is named as a salt.

From US7776848B2, “Spirocyclic cyclohexane compounds” (Gruenenthal GmbH, priority 2004, dated 2010) come the findings set out here.

T3 sequence (P35372 whole entry): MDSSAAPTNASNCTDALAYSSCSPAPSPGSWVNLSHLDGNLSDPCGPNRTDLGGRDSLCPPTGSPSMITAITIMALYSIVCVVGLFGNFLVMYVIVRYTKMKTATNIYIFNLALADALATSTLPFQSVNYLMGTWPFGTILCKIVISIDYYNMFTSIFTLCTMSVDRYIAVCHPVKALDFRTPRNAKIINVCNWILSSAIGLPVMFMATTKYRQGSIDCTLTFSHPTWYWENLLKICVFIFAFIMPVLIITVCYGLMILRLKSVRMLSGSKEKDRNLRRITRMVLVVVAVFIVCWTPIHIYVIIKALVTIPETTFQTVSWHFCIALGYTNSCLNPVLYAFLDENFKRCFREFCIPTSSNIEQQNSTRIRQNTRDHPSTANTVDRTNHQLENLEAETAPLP
T1 sequence (P31652 whole entry): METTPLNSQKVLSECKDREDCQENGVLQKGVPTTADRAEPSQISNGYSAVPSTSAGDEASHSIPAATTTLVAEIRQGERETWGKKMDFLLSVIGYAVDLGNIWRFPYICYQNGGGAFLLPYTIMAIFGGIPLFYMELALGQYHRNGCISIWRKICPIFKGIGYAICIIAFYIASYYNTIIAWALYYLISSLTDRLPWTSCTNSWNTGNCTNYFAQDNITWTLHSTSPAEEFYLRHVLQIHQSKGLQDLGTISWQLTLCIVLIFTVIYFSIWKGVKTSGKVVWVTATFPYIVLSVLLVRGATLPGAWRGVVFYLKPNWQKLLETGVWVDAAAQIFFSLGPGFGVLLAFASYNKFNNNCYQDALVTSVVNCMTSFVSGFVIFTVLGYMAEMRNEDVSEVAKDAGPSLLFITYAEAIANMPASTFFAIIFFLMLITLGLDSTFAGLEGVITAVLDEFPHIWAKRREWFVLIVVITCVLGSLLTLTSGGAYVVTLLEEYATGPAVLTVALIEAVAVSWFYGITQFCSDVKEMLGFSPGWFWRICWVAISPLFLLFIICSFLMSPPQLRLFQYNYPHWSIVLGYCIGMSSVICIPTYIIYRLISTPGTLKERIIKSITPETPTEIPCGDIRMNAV

Take `COc1cccc(C2(O)CCC3(CC2CN(C)C)NCCc2c3[nH]c3ccccc23)c1` (stereo not drawn) [Example 1, 1,1-(2-(Dimethylaminomethyl)-3-hydroxy-3-(3-methoxyphenyl)pentamethylene)-3,4-dihydro-1H-2,9-diazafluorene dihydrochloride]: the inhibition (as a rule, the drop in the measured response relative to a control, in per cent) at 10 µM came to 44% in assay [1] and 43% in assay [2]. This molecule also yielded an inhibition at 1 µM at human μ-opiate receptor of 40%.
For `Cc1ccccc1C1(O)CCC2(CC1CN(C)C)OCCc1c2oc2ccccc12` (stereo not drawn) [Example 12, 1,1-(2-(Dimethylaminomethyl)-3-hydroxy-3-(2-methylphenyl)-pentamethylene)-1,3,4,9-tetrahydro-pyrano[3,4-b]benzofuran citrate] the same measures were 68%, 41% and 56%.
Taken in the same sequence, the figures for `CN(C)CC1CC2(CCC1(O)c1ccccc1)OCCc1c2oc2ccccc12` (stereo not drawn) [Example 5, 1,1-(2-(Dimethylaminomethyl)-3-hydroxy-3-phenyl-pentamethylene)-1,3,4,9-tetrahydro-pyrano[3,4-b]benzofuran citrate] were 84%, 51% and 58%.
As to `CN(C)CC1CC2(CCC1(O)c1cccc(F)c1)OCCc1c2[nH]c2ccccc12` (stereo not drawn) [Example 27, 1,1-(2-(Dimethylaminomethyl)-3-hydroxy-3-(3-fluorophenyl)-pentamethylene)-1,3,4,9-tetrahydro-pyrano[3,4-b]indole hydrochloride], the inhibition at 10 µM in assay [1] came out at 83%. Moreover, 1 µM produced 64% inhibition on human μ-opiate receptor.
As to `CN(C)CC1CC2(CCC1(O)c1ccccc1)NCCc1c2[nH]c2ccccc12` (stereo not drawn) [Example 28, 1,1-(2-(Dimethylaminomethyl)-3-hydroxy-3-phenyl-pentamethylene)-3,4-dihydro-1H-2,9-diazafluorene citrate], the inhibition at 1 µM on human μ-opiate receptor is 57%.
On the same count and under the same terms, as for `COc1cccc(C2(O)CCC3(CC2CN(C)C)c2[nH]c4ccccc4c2CCN3C(C)=O)c1` (stereo not drawn) [Example 2, 1,1-(2-(Dimethylaminomethyl)-3-hydroxy-3-(3-methoxyphenyl)pentamethylene)-2-acetyl-3,4-dihydro-1H-2,9-diazafluorene hydrochloride], the figure is 65%.
Regarding `CN(C)CC1CC2(CCC1(O)c1ccccc1)OCCc1c2[nH]c2ccccc12` (stereo not drawn) [Example 4, 1,1-(2-(Dimethylaminomethyl)-3-hydroxy-3-phenyl-pentamethylene)-1,3,4,9-tetrahydro-pyrano[3,4-b]indole sesquicitrate], 10 µM produced 84% inhibition in assay [1]. For the same molecule, the inhibition at 1 µM at human μ-opiate receptor worked out at 74%.
Consider `CSc1ccc(C2(O)CCC3(CC2CN(C)C)NCCc2c3[nH]c3cc(F)ccc23)cc1` (stereo not drawn) [Example 34, 1,1-(2-(Dimethylaminomethyl)-3-hydroxy-3-(4-methylthiophenyl)-pentamethylene)-7-fluoro-3,4-dihydro-1H-2,9-diazafluorene citrate], for which the values for the inhibition at 10 µM in assay [1] and in assay [2] were 65% and 57%, respectively. This molecule also gave an inhibition at 1 µM at human μ-opiate receptor of 54%.
Regarding `CN(C)CC1CC2(CCC1(O)c1cccc(F)c1)OCCc1c2oc2ccccc12` (stereo not drawn) [Example 8, 1,1-(2-(Dimethylaminomethyl)-3-hydroxy-3-(3-fluorophenyl)-pentamethylene)-1,3,4,9-tetrahydro-pyrano[3,4-b]benzofuran citrate], the values for the inhibition at 10 µM in assay [1] and in assay [2] were 88% and 66%, respectively. This molecule showed an inhibition at 1 µM on human μ-opiate receptor of 73%.
